For 16 molecules, EC50 and IC50 results are on record in patent US20230391772A1, “METHODS AND COMPOSITIONS FOR TARGETED PROTEIN DEGRADATION” (Ranok Therapeutics (Hangzhou) Co. Ltd., priority 2020, published 2023).

One may read the EC50 as the concentration giving half of the maximal effect. For orientation: IC50 means the midpoint of a concentration-inhibition curve. A higher IC50 goes with a need for much substance.

SMILES strings stand for the structures. Some results are limits rather than exact numbers.

Assay [1] relates to NCI-H358 human non-small cell lung cancer. The assay can be described thus: NCI-H358 CCK-8 proliferation assay. It counts as cell-based. Conditions: NCI-H358 cells, 72 hr. Summed up: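 Three KRAS(G12C) lines are used, MIA PaCa-2 at two mutant copies and the NSCLC lines NCI-H358 and NCI-H23 at one. Each compound is titrated 3-fold from 20 μM to 1.02 nM, and proliferation is scored by CCK-8.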

Another assay addresses T1, HSP90a protein (Homo sapiens, UniProt P07900).
T1 construct: purchased BPS Bioscience 50298
The assay can be described thus: HSP90α-binding fluorescent polarization (FP) assay, BODIPY-labeled RNK04010 probe. Conditions: FP competition with RNK04010 (BODIPY-labeled), 5 nM, 300 min at 25° C. An outline of the steps:
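N-terminal HSP90a construct; tracer 5 nM final (FITC-geldanamycin or BODIPY-RNK04010, a labeled triazolone binder). Compounds 20 μM–5.2 nM, 2.5-fold steps. 25° C, 120 min (FITC) / 300 min (BODIPY). FP readout.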

`C=CC(=O)N1CCN(c2nc(NCCC(=O)NCc3ccc(-n4c(O)nnc4-c4cc(C(C)C)c(O)cc4O)cc3F)nc3c2CCN(c2cc(O)cc4ccccc24)C3)CC1` [Compound 47, 3-((4-(4-acryloylpiperazin-1-yl)-7-(3-hydroxynaphthalen-1-yl)-5,6,7,8-tetrahydropyrido[3,4-d]pyrimidin-2-yl)amino)-N-(4-(3-(2,4-dihydroxy-5-isopropylphenyl)-5-hydroxy-4H-1,2,4-triazol-4-yl)-2-fluorobenzyl)propenamide] gave an EC50 in assay [1] of over 1000 nM. The half-maximal inhibitory concentration (IC50) on HSP90a protein was in the range of 100 to 1000 nM.
Turning to `CCc1cc(-c2nnc(O)n2-c2ccc(CNC(=O)CCNc3nc4c(c(N5CCN(C(C)=O)CC5)n3)CCN(c3cc(O)cc5ccccc35)C4)cc2)c(O)cc1O` [Compound 48, 3-((4-(4-acetylpiperazin-1-yl)-7-(3-hydroxynaphthalen-1-yl)-5,6,7,8-tetrahydropyrido[3,4-d]pyrimidin-2-yl)amino)-N-(4-(3-(5-ethyl-2,4-dihydroxyphenyl)-5-hydroxy-4H-1,2,4-triazol-4-yl)benzyl)propanamide, trifluoroacetic acid], in assay [1], the EC50 is over 1000 nM. The molecule also came in with an IC50 at HSP90a protein of 100 to 1000 nM.
Turning to `CC(=O)N1CCN(c2nc(NCCC(=O)NCc3ccc(-n4c(O)nnc4-c4cc(C(C)C)c(O)cc4O)cc3F)nc3c2CCN(c2cc(O)cc4ccccc24)C3)CC1` [Compound 49, 3-((4-(4-acetylpiperazin-1-yl)-7-(3-hydroxynaphthalen-1-yl)-5,6,7,8-tetrahydropyrido[3,4-d]pyrimidin-2-yl)amino)-N-(4-(3-(2,4-dihydroxy-5-isopropylphenyl)-5-hydroxy-4H-1,2,4-triazol-4-yl)-2-fluorobenzyl)propanamide, trifluoroacetic acid], the EC50 in assay [1] is over 1000 nM. Further, the concentration for half-maximal inhibition (IC50) at HSP90a protein fell in the range of 100 to 1000 nM.
For the molecule `CCC(=O)N1CCN(c2nc(NCCC(=O)NCc3ccc(-n4c(O)nnc4-c4cc(C(C)C)c(O)cc4O)cc3)nc3c2CCN(c2cc(O)cc4ccccc24)C3)CC1` [Compound 50, N-(4-(3-(2,4-dihydroxy-5-isopropylphenyl)-5-hydroxy-4H-1,2,4-triazol-4-yl)benzyl)-3-((7-(3-hydroxynaphthalen-1-yl)-4-(4-propionylpiperazin-1-yl)-5,6,7,8-tetrahydropyrido[3,4-d]pyrimidin-2-yl)amino)propanamide, trifluoroacetic acid], the EC50 in assay [1] was over 1000 nM. At HSP90a protein, this molecule showed an IC50 of 100 to 1000 nM.
The matching figures for `CCC(=O)N1CCN(c2nc(NCCC(=O)NCCOc3ccc(-n4c(O)nnc4-c4cc(C(C)C)c(O)cc4O)cc3)nc3c2CCN(c2cc(O)cc4ccccc24)C3)CC1` [Compound 51, N-(2-(4-(3-(2,4-dihydroxy-5-isopropylphenyl)-5-hydroxy-4H-1,2,4-triazol-4-yl)phenoxy)ethyl)-3-((7-(3-hydroxynaphthalen-1-yl)-4-(4-propionylpiperazin-1-yl)-5,6,7,8-tetrahydropyrido[3,4-d]pyrimidin-2-yl)amino)propanamide, trifluoroacetic acid]: over 1000 nM and 100 to 1000 nM.
With `CCCc1cc(-c2nnc(O)n2-c2ccc(CN3CCN(CC4CCN(C(=O)CCNc5nc6c(c(N7CCN(C(=O)CC)CC7)n5)CCN(c5cc(O)cc7ccccc57)C6)CC4)CC3)cc2)c(O)cc1O` [Compound 52, 1-(4-((4-(4-(3-(2,4-dihydroxy-5-propylphenyl)-5-hydroxy-4H-1,2,4-triazol-4-yl)benzyl)piperazin-1-yl)methyl)piperidin-1-yl)-3-((7-(3-hydroxynaphthalen-1-yl)-4-(4-propionylpiperazin-1-yl)-5,6,7,8-tetrahydropyrido[3,4-d]pyrimidin-2-yl)amino)propan-1-one], the 50% effective concentration (EC50) in assay [1] is over 1000 nM. The IC50 on HSP90a protein lay within 100 to 1000 nM.
On to `CCc1cc(-c2nnc(O)n2-c2ccc(CNC(=O)CCNc3nc4c(c(N5CCN(C(C)=O)CC5)n3)CCN(c3cc(O)cc5ccccc35)C4)c(C(F)(F)F)c2)c(O)cc1O` [Compound 53, 3-((4-(4-acetylpiperazin-1-yl)-7-(3-hydroxynaphthalen-1-yl)-5,6,7,8-tetrahydropyrido[3,4-d]pyrimidin-2-yl)amino)-N-(4-(3-(5-ethyl-2,4-dihydroxyphenyl)-5-hydroxy-4H-1,2,4-triazol-4-yl)-2-(trifluoromethyl)benzyl)propanamide, trifluoroacetic acid], for which the 50% effective concentration (EC50) in assay [1] was over 1000 nM. At HSP90a protein, this molecule gave an IC50 of over 1000 nM.
`CC(=O)N1CCN(c2nc(NCCC(=O)N3CCN(Cc4ccc5c(c4)CN(C(=O)c4cc(C(C)C)c(O)cc4O)C5)CC3)nc3c2CCN(c2cc(O)cc4ccccc24)C3)CC1` [Compound 56, 3-((4-(4-acetylpiperazin-1-yl)-7-(3-hydroxynaphthalen-1-yl)-5,6,7,8-tetrahydropyrido[3,4-d]pyrimidin-2-yl)amino)-1-(4-((2-(2,4-dihydroxy-5-isopropylbenzoyl)isoindolin-5-yl)methyl)piperazin-1-yl)propan-1-one, trifluoroacetic acid] had a half-maximal effective concentration (EC50) in assay [1] of over 1000 nM. On HSP90a protein, this molecule yielded an IC50 of 100 to 1000 nM.
Consider `CCC(=O)N1CCN(c2nc(NCCC(=O)N3CCN(Cc4ccc5c(c4)CN(C(=O)c4cc(C(C)C)c(O)cc4O)C5)CC3)nc3c2CCN(c2cc(O)cc4ccccc24)C3)CC1` [Compound 57, 1-(4-((2-(2,4-dihydroxy-5-isopropylbenzoyl)isoindolin-5-yl)methyl)piperazin-1-yl)-3-((7-(3-hydroxynaphthalen-1-yl)-4-(4-propionylpiperazin-1-yl)-5,6,7,8-tetrahydropyrido[3,4-d]pyrimidin-2-yl)amino)propan-1-one, trifluoroacetic acid], for which, in assay [1], the EC50 was over 1000 nM. Also, the IC50 on HSP90a protein was in the range of 100 to 1000 nM.
Turning to `C=CC(=O)N1CCN(c2nc(NCCC(=O)N3CCN(Cc4ccc5c(c4)CN(C(=O)c4cc(C(C)C)c(O)cc4O)C5)CC3)nc3c2CCN(c2cc(O)cc4ccccc24)C3)CC1` [Compound 58, 1-(4-(2-((3-(4-((2-(2,4-dihydroxy-5-isopropylbenzoyl)isoindolin-5-yl)methyl)piperazin-1-yl)-3-oxopropyl)amino)-7-(3-hydroxynaphthalen-1-yl)-5,6,7,8-tetrahydropyrido[3,4-d]pyrimidin-4-yl)piperazin-1-yl)prop-2-en-1-one], the EC50 in assay [1] was over 1000 nM. The molecule also displayed an IC50 at HSP90a protein of 100 to 1000 nM.
As to `CCC(=O)N1CCN(c2nc(NCCC(=O)N3CCC(CN4CCN(Cc5ccc(-n6c(O)nnc6-c6ccc(O)cc6O)cc5)CC4)CC3)nc3c2CCN(c2cc(O)cc4ccccc24)C3)CC1` [Compound 65, 1-(4-((4-(4-(3-(2,4-dihydroxyphenyl)-5-hydroxy-4H-1,2,4-triazol-4-yl)benzyl)piperazin-1-yl)methyl)piperidin-1-yl)-3-((7-(3-hydroxynaphthalen-1-yl)-4-(4-propionylpiperazin-1-yl)-5,6,7,8-tetrahydropyrido[3,4-d]pyrimidin-2-yl)amino)propan-1-one, trifluoroacetic acid], the 50% effective concentration (EC50) in assay [1] is over 1000 nM. This molecule registered an IC50 at HSP90a protein of 100 to 1000 nM.
As for `CCC(=O)N1CCN(c2nc(NCCC(=O)N3CCN(Cc4ccc5c(c4)CN(C(=O)c4cc(CC)c(O)cc4O)C5)CC3)nc3c2CCN(c2cc(O)cc4ccccc24)C3)CC1` [Compound 66, 1-(4-((2-(5-ethyl-2,4-dihydroxybenzoyl)isoindolin-5-yl)methyl)piperazin-1-yl)-3-((7-(3-hydroxynaphthalen-1-yl)-4-(4-propionylpiperazin-1-yl)-5,6,7,8-tetrahydropyrido[3,4-d]pyrimidin-2-yl)amino)propan-1-one, trifluoroacetic acid], in assay [1], the EC50 was over 1000 nM. This molecule also showed an IC50 at HSP90a protein of over 1000 nM.
With `CCc1cc(C(=O)N2Cc3ccc(CN4CCN(C(=O)CCNc5nc6c(c(N7CCN(C(C)=O)CC7)n5)CCN(c5cc(O)cc7ccccc57)C6)CC4)cc3C2)c(O)cc1O` [Compound 67, 3-((4-(4-acetylpiperazin-1-yl)-7-(3-hydroxynaphthalen-1-yl)-5,6,7,8-tetrahydropyrido[3,4-d]pyrimidin-2-yl)amino)-1-(4-((2-(5-ethyl-2,4-dihydroxybenzoyl)isoindolin-5-yl)methyl)piperazin-1-yl)propan-1-one, trifluoroacetic acid], the EC50 in assay [1] was over 1000 nM. Besides, the IC50 at HSP90a protein was 100 to 1000 nM.
In assay [1], `C=CC(=O)N1CCN(c2nc(NCCC(=O)N3CCN(Cc4ccc5c(c4)CN(C(=O)c4cc(CC)c(O)cc4O)C5)CC3)nc3c2CCN(c2cc(O)cc4ccccc24)C3)CC1` [Compound 68, 1-(4-(2-((3-(4-((2-(5-ethyl-2,4-dihydroxybenzoyl)isoindolin-5-yl)methyl)piperazin-1-yl)-3-oxopropyl)amino)-7-(3-hydroxynaphthalen-1-yl)-5,6,7,8-tetrahydropyrido[3,4-d]pyrimidin-4-yl)piperazin-1-yl)prop-2-en-1-one, trifluoroacetic acid] came in with an EC50 of over 1000 nM. The IC50 at HSP90a protein was over 1000 nM.
As for `CC(=O)N1CCN(c2nc(NCCC(=O)NCCOCCOc3ccc(-n4c(O)nnc4-c4cc(C(C)C)c(O)cc4O)cc3)nc3c2CCN(c2cc(O)cc4ccccc24)C3)CC1` [Compound 70, 3-((4-(4-acetylpiperazin-1-yl)-7-(3-hydroxynaphthalen-1-yl)-5,6,7,8-tetrahydropyrido[3,4-d]pyrimidin-2-yl)amino)-N-(2-(2-(4-(3-(2,4-dihydroxy-5-isopropylphenyl)-5-hydroxy-4H-1,2,4-triazol-4-yl)phenoxy)ethoxy)ethyl)propanamide, trifluoroacetic acid], the EC50 in assay [1] is over 1000 nM. The molecule also came in with a 50% inhibitory concentration (IC50) at HSP90a protein of 100 to 1000 nM.
In the case of `C=CC(=O)N1CCN(c2nc(NCCC(=O)NCCOCCOc3ccc(-n4c(O)nnc4-c4cc(C(C)C)c(O)cc4O)cc3)nc3c2CCN(c2cc(O)cc4ccccc24)C3)CC1` [Compound 72, trifluoroacetic acid], the 50% effective concentration (EC50) in assay [1] is over 1000 nM. The molecule further displayed a 50% inhibitory concentration (IC50) at HSP90a protein of under 100 nM.
